Data taken from patent US20090123954A1, “MULTICOLOR BIOLUMINESCENT VISUALIZATION PROBE SET, OR SINGLE-MOLECULE-FORMAT MULTICOLOR BIOLUMINESCENT VISUALIZATION PROBE” (National Institute of Advanced Industrial Science and …, priority 2007, published 2009).
Like-named read-outs stand apart in the source and are kept apart here. Ends that are not written are not given here.

Experiments:
ER LBD [1] = biological target: T1, ER LBD (Homo sapiens, UniProt P03372)
T1 sequence (P03372 305-550): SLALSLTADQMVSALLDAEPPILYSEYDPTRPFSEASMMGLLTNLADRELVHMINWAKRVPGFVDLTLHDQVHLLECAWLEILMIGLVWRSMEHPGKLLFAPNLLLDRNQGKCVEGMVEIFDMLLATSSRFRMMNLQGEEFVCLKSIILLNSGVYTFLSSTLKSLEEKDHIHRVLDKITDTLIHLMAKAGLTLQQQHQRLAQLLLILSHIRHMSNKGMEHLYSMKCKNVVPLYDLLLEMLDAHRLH

ER LBD [2] = biological target: T1, ER LBD; remark: listed apart in the source
ER LBD [3] = biological target: T1, ER LBD; remark: listed apart in the source
ER LBD [4] = biological target: T2, ER LBD (Homo sapiens, UniProt P03372); assay: Estrogenicity score in COS-7 cells co-expressing pSimer-R2 and pSimer-G6
T2 sequence (P03372 305-550) 1: T1 sequence (P03372 305-550)
T2 sequence (P03372 305-550) 2: T1 sequence (P03372 305-550)

ER LBD [5] = biological target: T1, ER LBD; assay: Ligand sensitivity of various cell lines carrying pSimer-R2 (red luminescence); settings: pSimer-R2 in HeLa, COS-7, NIH 3T3 and MCF-7 cells; 20 minutes stimulation; each cell line
ER LBD [6] = biological target: T2, ER LBD; assay: Estrogenicity score in COS-7 cells cotransfected with pSimer-R2 and pSimer-G4; format: cell-based; design: cDNAs of ER LBD (305-550 AA) and phosphorylation-recognition domain of Src (SH2) were amplified by PCR; expressed in transfected cells; host or cells: COS-7
Method: A COS-7 cells carrying both pSimer-R2 and pSimer-G4 were simulated with ligands for 20 minutes, and spectrum of luminescence emitted as a result with all wavelengths was observed (FIG. 11). […] The term genomic signal used herein refers to an intracellular signal involved in conventional protein expression in the nucleus. On the other hand, the term non-genomic signal means an intracellular signal not accompanying conventional protein expression. Typically, this is the general classification of intracellular signal transductions.
Further, from ratio of luminescence intensities between red signal (610 nm) and green signal (540 nm) induced by a ligand, it is possible to show numerically whether the measured ligand tends to genomic activity (also referred to as agonistic activity herein) or nongenomic activity (also referred to as antagonistic activity herein).

COS-7 cells = assay: Optimal LXXLL motif: ligand sensitivity of COS-7 cells carrying pSimer-G plasmids; format: cell-based, African Green Monkey; settings: E2 or OHT for 20 minutes, compared among six pSimer-G plasmids
Method: As shown in the above (Table 1), six kinds of LXXLL motifs as those can be applied to each of […] backbones were prepared, and introduced into […]. Ligand sensitivity of COS-7 cells carrying either one of the six kinds of plasmids was measured (FIG. 8). […] Next, spectrum from the cells carrying […]6 with all wavelengths was measured, provided ligand was present and absent (FIG. 9).

[7] = [variation of luminescence intensity at 540 nm]/[variation at 610 nm], COS-7 cells, pSimer-R2 + pSimer-G6, 20 minutes stimulation
[8] = [variation of luminescence intensity at 540 nm]/[variation at 610 nm], COS-7 cells, pSimer-R2 + pSimer-G4, 20 minutes stimulation

Row | Compound | increase in luminescence intensity (ER LBD [5]) | Estrogenicity score (ER LBD [4]; [7]) | Estrogenicity score (ER LBD [6]; [8]) | further results
1 | 4-hydroxytamoxifen [OHT] | remarkable luminescence intensity | – | – | time of peak luminescence intensity after stimulation (ER LBD [1]): 15 min; concentration at which luminescence intensity peaked (ER LBD [2]): about 10^−5 M; concentration at which luminescence intensity peaked (ER LBD [3]): about 10^−5 M; Estrogenicity score (ER LBD [4]): 0.38; Estrogenicity score (ER LBD [6]): 0.62
2 | C[C@]12CC[C@@H]3c4ccc(O)cc4C[C@@H](CCCCCCCCC[S+]([O-])CCCC(F)(F)C(F)(F)F)[C@H]3[C@@H]1CC[C@@H]2O (stereo partly shown) [ICI, ICI182780] | remarkable luminescence intensity | 1.08 | 0.86 | –
3 | C[C@]12CC[C@H]3[C@@H](CCC4=CC(=O)CC[C@@]43C)[C@@H]1CC[C@@H]2O [T, testosterone] | – | 1.07 | 1.07 | –
4 | CC(=O)[C@H]1CC[C@H]2[C@@H]3CCC4=CC(=O)CC[C@]4(C)[C@H]3CC[C@]12C [progesterone] | – | 1.06 | – | –
5 | pSimer-G6: green luminescent probe, Rip140 motif 946 VCNESLLLQKLVNFS 932 (also: within green luminescent probe) | – | – | – | luminescence intensity ratio relative to control (S/N ratio) (COS-7 cells): strongest luminescence intensity ratio relative to control
